Measurements reported in paper PMC10272112 (Nature Communications, 2023).
Where two headings read alike, the source gives them in different places.

Columns and labels:
HDAC1 = HDAC1 (Homo sapiens, UniProt Q13547); test: Chemoproteomic competition pulldown assay; format: binding; parameters: endogenous in cells; host or cells: SW620, MV4-11, A549 lysates; conditions: for Kd: read-out: pKdapp (converted)
Protocol: (§1) To identify proteins directly bound by lipoic acid, we employed a chemoproteomic competition assay. Briefly, (R/S)-LA was immobilized on sepharose beads via an amidation reaction to form an affinity matrix (abbreviated as iL; Fig. 1a). This affinity matrix can be incubated with cell lysate to pull down potential LA or LM target proteins and identify these targets via bottom-up proteomics. In a competition assay, free LA or LM were incubated with lysate at different concentrations before pulling down and quantifying target proteins. […] (Fig. 1b, see “Methods” for details). […] The lysate buffer used in this assay contains 1 mM DTT to mimic the intracellular reductive milieu and to reduce lipoic acid and LM. […] Additional competition assays performed in lung adenocarcinoma cell A549 lysate also identified HDAC1, HDAC2, and HDAC6 as targets (Supplementary Fig. 1b). Amongst the three cell lines tested, HDACs were the only confidently identified targets across the 1500–3000 proteins quantified in these assays. […] We validated the results by analogous pulldown competition assays using two other affinity matrices prepared via the immobilization of either the HDAC inhibitor Quisinostat (iQ) and an analog of the class IIa HDAC inhibitor Bürli’s 31[14] (iC)[12]. We have previously shown that these affinity matrices specifically bind to the active sites of HDACs and have used them for HDACi selectivity profiling. Indeed, binding of (R/S)-LA and (R/S)-LM to HDAC1, HDAC2, HDAC3, HDAC6, and, to a lesser extent, HDAC8 was confirmed in these assays (Supplementary Fig. 1c, d). No binding to class IIa HDACs or the recently discovered common HDAC inhibitor off-target MBLAC2 was observed (Supplementary Fig. 1e)[12]. […] This observation might reflect electrostatic repulsion between the HDAC10 active site gate-keeper glutamic acid residues[15],[16] and the terminal carboxylic acid of LA.
(§2) To assess the degree of protein depletion from lysates by the affinity matrix, a second pulldown (PDPD) with fresh beads was performed using the unbound protein fraction from the vehicle control flow through. The beads were washed (1 × 1 mL of lysis buffer without inhibitors and only 0.4% Igepal, 2 × 2 mL of lysis buffer without inhibitors and only 0.2% Igepal), and captured proteins were denatured with 8 M urea buffer, alkylated with 55 mM chloroacetamide and digested with Trypsin according to standard procedures. The resulting peptides were desalted on a C18 filter plate (Sep-Pak® tC18 µElution Plate, Waters), vacuum dried, and stored at −20 °C until LC–MSMS measurement.
(§3) For the competition assays, relative binding was calculated based on the protein intensity ratio to the DMSO control for every single inhibitor concentration. EC50 values were derived from a four-parameter log-logistic regression with variable slope (constrain: bottom > 0). The obtained EC50 values were multiplied with a protein-dependent correction factor (cf), resulting in the apparent Kd value (Kd^app). The correction factor is determined by calculating the ratio of the protein intensity of two consecutive pulldowns of the vehicle control sample[13]. Targets of the inhibitors were annotated manually according to published procedures[12],[46],[47]. […] Additionally, the number of unique peptides and MSMS counts per condition were taken into account. Positive target binding across several independent experiments performed with different cell lysates further substantiated our confidence for a true positive drug-target binding event.

HDAC2 = HDAC2 (Homo sapiens, UniProt Q92769); test: Chemoproteomic competition pulldown assay; format: binding; parameters: endogenous in cells; host or cells: SW620, MV4-11, A549 lysates
Protocol: as §1, §2, §3

[1] = iL, A549 lysate, log10 M -4.52288
[2] = iL, A549 lysate, log10 M -5.52288
[3] = iL, A549 lysate, log10 M -6.52288
[4] = iL, A549 lysate, log10 M -7.52288
[5] = iL, A549 lysate, log10 M -8.52288
[6] = iL, SW620 lysate, log10 M -3.52288
[7] = iL, SW620 lysate, log10 M -4.52288
[8] = iL, SW620 lysate, log10 M -5.52288
[9] = iL, SW620 lysate, log10 M -6.52288
[10] = iQ, SW620 lysate, log10 M -3.52288
[11] = iQ, SW620 lysate, log10 M -4.52288
[12] = iQ, SW620 lysate, log10 M -5.52288
[13] = iQ, SW620 lysate, log10 M -6.52288
[14] = iL, SW620, read-out: pKdapp (converted)
[15] = iQ, SW620, read-out: pKdapp (converted)
[16] = iL, MV4-11 lysate, log10 M -3.52288
[17] = iL, MV4-11 lysate, log10 M -4.52288
[18] = iL, MV4-11 lysate, log10 M -5.52288
[19] = iL, MV4-11 lysate, log10 M -6.52288

Chain of HDAC2 (Q92769 whole entry): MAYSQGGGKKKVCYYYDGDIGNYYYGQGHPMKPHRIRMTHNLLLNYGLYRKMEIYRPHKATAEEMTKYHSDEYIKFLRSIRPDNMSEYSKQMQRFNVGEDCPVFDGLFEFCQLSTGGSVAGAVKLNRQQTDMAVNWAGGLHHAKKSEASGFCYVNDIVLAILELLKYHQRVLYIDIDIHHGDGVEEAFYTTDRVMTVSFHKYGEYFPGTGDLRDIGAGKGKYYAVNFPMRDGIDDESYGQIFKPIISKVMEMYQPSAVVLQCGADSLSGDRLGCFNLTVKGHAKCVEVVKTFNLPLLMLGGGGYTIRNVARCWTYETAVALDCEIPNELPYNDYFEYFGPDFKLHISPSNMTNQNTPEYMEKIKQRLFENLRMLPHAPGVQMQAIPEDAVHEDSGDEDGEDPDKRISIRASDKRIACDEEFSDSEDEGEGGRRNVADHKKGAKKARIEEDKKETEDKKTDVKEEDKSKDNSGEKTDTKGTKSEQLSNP
Chain of HDAC1 (Q13547 whole entry): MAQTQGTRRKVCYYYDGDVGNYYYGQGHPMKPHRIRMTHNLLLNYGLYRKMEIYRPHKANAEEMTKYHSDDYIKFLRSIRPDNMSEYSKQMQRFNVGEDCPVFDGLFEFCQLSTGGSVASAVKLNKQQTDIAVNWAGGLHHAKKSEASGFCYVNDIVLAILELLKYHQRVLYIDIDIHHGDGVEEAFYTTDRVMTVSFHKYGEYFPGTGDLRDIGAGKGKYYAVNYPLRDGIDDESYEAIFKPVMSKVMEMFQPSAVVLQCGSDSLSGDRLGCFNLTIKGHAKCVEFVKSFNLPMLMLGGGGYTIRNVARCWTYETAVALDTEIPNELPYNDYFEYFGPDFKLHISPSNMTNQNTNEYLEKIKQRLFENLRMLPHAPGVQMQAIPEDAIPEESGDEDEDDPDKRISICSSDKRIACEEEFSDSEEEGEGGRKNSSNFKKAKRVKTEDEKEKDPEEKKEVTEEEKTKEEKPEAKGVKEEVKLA

O=C(O)CCCCC1CCSS1 (racemic) [(R/S)-LA, (R/S)-lipoic acid]
Kd (HDAC1; iL, A549): 1 µM | relative binding vs DMSO (HDAC1; iL, A549 lysate, log10 M -4): 0.3621 | relative binding vs DMSO (HDAC1; [1]): 0.1828 | relative binding vs DMSO (HDAC1; iL, A549 lysate, log10 M -5): 0.2687 | relative binding vs DMSO (HDAC1; [2]): 0.5244 | relative binding vs DMSO (HDAC1; iL, A549 lysate, log10 M -6): 0.7392 | relative binding vs DMSO (HDAC1; [3]): 0.8303 | relative binding vs DMSO (HDAC1; [4]): 1.235 | relative binding vs DMSO (HDAC1; iL, A549 lysate, log10 M -8): 1.138 | relative binding vs DMSO (HDAC1; [5]): 1.054 | Kd (HDAC1; iL, SW620): 7.94 µM | relative binding vs DMSO (HDAC1; [6]): 0.1153 | relative binding vs DMSO (HDAC1; iL, SW620 lysate, log10 M -4): 0.1408 | relative binding vs DMSO (HDAC1; [7]): 0.5904 | relative binding vs DMSO (HDAC1; iL, SW620 lysate, log10 M -5): 0.9976 | relative binding vs DMSO (HDAC1; [8]): 0.8296 | relative binding vs DMSO (HDAC1; iL, SW620 lysate, log10 M -6): 0.9942 | relative binding vs DMSO (HDAC1; [9]): 0.9252 | relative binding vs DMSO (HDAC1; iL, SW620 lysate, log10 M -7): 1.135 | Kd (HDAC1; iQ, SW620): 25.1 µM | relative binding vs DMSO (HDAC1; [10]): 0.2247 | relative binding vs DMSO (HDAC1; iQ, SW620 lysate, log10 M -4): 0.2525 | relative binding vs DMSO (HDAC1; [11]): 0.6007 | relative binding vs DMSO (HDAC1; iQ, SW620 lysate, log10 M -5): 0.7446 | relative binding vs DMSO (HDAC1; [12]): 0.8354 | relative binding vs DMSO (HDAC1; iQ, SW620 lysate, log10 M -6): 0.8396 | relative binding vs DMSO (HDAC1; [13]): 0.9165 | relative binding vs DMSO (HDAC1; iQ, SW620 lysate, log10 M -7): 0.8126 | Kd (HDAC2; iL, A549, read-out: pKdapp (converted)): 1 µM | relative binding vs DMSO (HDAC2; iL, A549 lysate, log10 M -4): 0.3867 | relative binding vs DMSO (HDAC2; [1]): 0.2342 | relative binding vs DMSO (HDAC2; iL, A549 lysate, log10 M -5): 0.3145 | relative binding vs DMSO (HDAC2; [2]): 0.7222 | relative binding vs DMSO (HDAC2; iL, A549 lysate, log10 M -6): 0.7592 | relative binding vs DMSO (HDAC2; [3]): 1.015 | relative binding vs DMSO (HDAC2; [4]): 1.14 | relative binding vs DMSO (HDAC2; iL, A549 lysate, log10 M -8): 1.179 | relative binding vs DMSO (HDAC2; [5]): 1.15 | Kd (HDAC2; [14]): 6.31 µM | relative binding vs DMSO (HDAC2; [6]): 0.08452 | relative binding vs DMSO (HDAC2; iL, SW620 lysate, log10 M -4): 0.1723 | relative binding vs DMSO (HDAC2; [7]): 0.723 | relative binding vs DMSO (HDAC2; iL, SW620 lysate, log10 M -5): 1.4202 | relative binding vs DMSO (HDAC2; [8]): 0.8654 | relative binding vs DMSO (HDAC2; iL, SW620 lysate, log10 M -6): 1.086 | relative binding vs DMSO (HDAC2; [9]): 0.8422 | relative binding vs DMSO (HDAC2; iL, SW620 lysate, log10 M -7): 1.138 | Kd (HDAC2; [15]): 31.6 µM | relative binding vs DMSO (HDAC2; [10]): 0.2247 | relative binding vs DMSO (HDAC2; iQ, SW620 lysate, log10 M -4): 0.2743 | relative binding vs DMSO (HDAC2; [11]): 0.6023 | relative binding vs DMSO (HDAC2; iQ, SW620 lysate, log10 M -5): 0.7491 | relative binding vs DMSO (HDAC2; [12]): 0.82 | relative binding vs DMSO (HDAC2; iQ, SW620 lysate, log10 M -6): 0.8431 | relative binding vs DMSO (HDAC2; [13]): 0.9314 | relative binding vs DMSO (HDAC2; iQ, SW620 lysate, log10 M -7): 0.8052

NC(=O)CCCCC1CCSS1 (racemic) [(R/S)-LM, (R/S)-lipoamide]
relative binding vs DMSO (HDAC1; [16]): 0.1265 | relative binding vs DMSO (HDAC1; iL, MV4-11 lysate, log10 M -4): 0.2225 | relative binding vs DMSO (HDAC1; [17]): 0.3978 | relative binding vs DMSO (HDAC1; iL, MV4-11 lysate, log10 M -5): 0.749 | relative binding vs DMSO (HDAC1; [18]): 0.6057 | relative binding vs DMSO (HDAC1; iL, MV4-11 lysate, log10 M -6): 0.6823 | relative binding vs DMSO (HDAC1; [19]): 0.771 | relative binding vs DMSO (HDAC1; iL, MV4-11 lysate, log10 M -7): 0.9295 | Kd (HDAC1; iL, MV411): 10 µM | Kd (HDAC1; iL, SW620): 12.6 µM | Kd (HDAC1; iQ, SW620): 20 µM | relative binding vs DMSO (HDAC1; [10]): 0.1684 | relative binding vs DMSO (HDAC1; iQ, SW620 lysate, log10 M -4): 0.2856 | relative binding vs DMSO (HDAC1; [11]): 0.6671 | relative binding vs DMSO (HDAC1; iQ, SW620 lysate, log10 M -5): 1.011 | relative binding vs DMSO (HDAC1; [12]): 0.8661 | relative binding vs DMSO (HDAC1; iQ, SW620 lysate, log10 M -6): 1.096 | relative binding vs DMSO (HDAC1; [13]): 1.037 | relative binding vs DMSO (HDAC1; iQ, SW620 lysate, log10 M -7): 1.154 | relative binding vs DMSO (HDAC2; [16]): 0.0982 | relative binding vs DMSO (HDAC2; iL, MV4-11 lysate, log10 M -4): 0.1933 | relative binding vs DMSO (HDAC2; [17]): 0.3304 | relative binding vs DMSO (HDAC2; iL, MV4-11 lysate, log10 M -5): 0.6612 | relative binding vs DMSO (HDAC2; [18]): 0.6399 | relative binding vs DMSO (HDAC2; iL, MV4-11 lysate, log10 M -6): 0.7735 | relative binding vs DMSO (HDAC2; [19]): 0.8518 | relative binding vs DMSO (HDAC2; iL, MV4-11 lysate, log10 M -7): 0.9297 | Kd (HDAC2; iL, MV4-11 lysate, read-out: Kd app): 14 µM | Kd (HDAC2; iL, MV411, read-out: pKdapp (converted)): 10 µM | Kd (HDAC2; [14]): 20 µM | Kd (HDAC2; [15]): 20 µM | relative binding vs DMSO (HDAC2; [10]): 0.1341 | relative binding vs DMSO (HDAC2; iQ, SW620 lysate, log10 M -4): 0.2239 | relative binding vs DMSO (HDAC2; [11]): 0.5192 | relative binding vs DMSO (HDAC2; iQ, SW620 lysate, log10 M -5): 0.7829 | relative binding vs DMSO (HDAC2; [12]): 0.822 | relative binding vs DMSO (HDAC2; iQ, SW620 lysate, log10 M -6): 0.953 | relative binding vs DMSO (HDAC2; [13]): 0.8561 | relative binding vs DMSO (HDAC2; iQ, SW620 lysate, log10 M -7): 0.9474
